Values of other authors, collected in patent US11166911B2, “Parenteral dosage form of amiodarone” (SUN PHARMACEUTICAL INDUSTRIES LIMITED, priority 2016, dated 2021).

Settings: Parmar et al. 1997

Degradation upon storage at higher temperatures: degrade significantly
Structure (SMILES): CCCCc1oc2ccccc2c1C(=O)c1cc(I)c(OCCN(CC)CC)c(I)c1 [Amidarone]
